The source of these data is US8673904B2, “Epoxide inhibitors of cysteine proteases” (The Board of Trustees of the Leland Stanford Junior …, priority 2006, dated 2014).

In this test the test system is cathepsin targets. The experiment in a line: Cathepsin targets of the compounds (Table 4). Type of test: biochemical, rat. The note with it: cathepsin target(s) inhibited; General = all cathepsins. As to the method: Also included in the table for comparison are known compounds JPMOEt and JPMOH (also known as JPM-565). See Meara and Rich, J. Med. Chem. 39:3357-3366, 1996; Bogyo et al, Chem. Biol. 7:27-38, 2000; and Joyce et al., Cancer Cell 5:443-453, 2004. The table also lists cathepsin targets and measured IC50 values for specific compounds. To determine these values, 1 mg/ml of rat liver lysate was incubated with a series of concentrations of the inhibitor for 20 minutes. Then, 1 ul of a radiolabled general cathepsin probe, DCG-04, was added to the solutions and incubated for 1 hour. After fixing and drying the gel, the residual enzyme activity was measured using ImageJ software. The measurements were then transferred to GraphPad Prism 4 to calculate the IC50 values.
Consider `CC(=O)NCCNC(=O)[C@H]1O[C@@H]1C(=O)N[C@@H](Cc1ccc(C)cc1)C(=O)N[C@@H](Cc1ccc(O)cc1)C(N)=O` [Compound 1], for which the Target result is given as “Cat B”.
Under `Cc1ccc(C[C@H](NC(=O)C2OC2C(=O)NCc2ccccc2)C(=O)N[C@@H](Cc2ccc(O)cc2)C(N)=O)cc1` (stereo partly shown) [Compound 2] stands “Cat B”; under `Cc1ccc(C[C@H](NC(=O)[C@H]2O[C@@H]2C(=O)NCCc2ccccn2)C(=O)N[C@@H](Cc2ccc(O)cc2)C(N)=O)cc1` [Compound 3], “Cat B”.
With `Cc1ccc(C[C@H](NC(=O)C2OC2C(=O)NCCN2CCOCC2)C(=O)N[C@@H](Cc2ccc(O)cc2)C(N)=O)cc1` (stereo partly shown) [Compound 4] the entry was “Cat B”; with `Cc1ccc(C[C@H](NC(=O)C2OC2C(=O)NCCc2ccc(-c3ccccc3)cc2)C(=O)N[C@@H](Cc2ccc(O)cc2)C(N)=O)cc1` (stereo partly shown) [Compound 5], “Cat B”.
Under `Cc1ccc(C[C@H](NC(=O)[C@H]2O[C@@H]2C(=O)NCCc2ccc(O)cc2)C(=O)N[C@@H](Cc2ccc(O)cc2)C(N)=O)cc1` [Compound 6] stands “Cat B”.
For the molecule `Cc1ccc(C[C@H](NC(=O)[C@H]2OC2C(=O)NCCN2CCCC2)C(=O)N[C@@H](Cc2ccc(O)cc2)C(N)=O)cc1` (stereo partly shown) [Compound 7], the Target result is “Cat B”.
Consider `Cc1ccc(C[C@H](NC(=O)[C@H]2O[C@@H]2C(=O)NCc2cccc3ccccc23)C(=O)N[C@@H](Cc2ccc(O)cc2)C(N)=O)cc1` [Compound 8], for which the Target result is recorded as “Cat B”.
With `Cc1ccc(C[C@H](NC(=O)C2OC2C(=O)NCCN2CCCCC2)C(=O)N[C@@H](Cc2ccc(O)cc2)C(N)=O)cc1` (stereo partly shown) [Compound 9] the entry was “Cat B”; with `Cc1ccc(C[C@H](NC(=O)C2OC2C(=O)N[C@H](C)c2ccccc2)C(=O)N[C@@H](Cc2ccc(O)cc2)C(N)=O)cc1` (stereo partly shown) [Compound 10], “Cat B”; with `Cc1ccc(C[C@H](NC(=O)C2O[C@@H]2C(=O)NN2CCN(C)CC2)C(=O)N[C@@H](Cc2ccc(O)cc2)C(N)=O)cc1` (stereo partly shown) [Compound 11], “Cat B”.
For `Cc1ccc(C[C@H](NC(=O)C2OC2C(=O)NCCCO)C(=O)N[C@@H](Cc2ccc(O)cc2)C(N)=O)cc1` (stereo partly shown) [Compound 12], the Target result was “Cat B”.
Regarding `Cc1ccc(C[C@H](NC(=O)C2OC2C(=O)NCCCCCCO)C(=O)N[C@@H](Cc2ccc(O)cc2)C(N)=O)cc1` (stereo partly shown) [Compound 13], the Target result is “Cat B”.
With `CCNC(=O)C1OC1C(=O)N[C@@H](Cc1ccc(C)cc1)C(=O)N[C@@H](Cc1ccc(O)cc1)C(N)=O` (stereo partly shown) [Compound 14] the entry was “Cat B”; with `Cc1ccc(C[C@H](NC(=O)C2OC2C(=O)NCC(N)=O)C(=O)N[C@@H](Cc2ccc(O)cc2)C(N)=O)cc1` (stereo partly shown) [Compound 15], “Cat B”.
Under `Cc1ccc(C[C@H](NC(=O)C2OC2C(=O)NCC(C)C)C(=O)N[C@@H](Cc2ccc(O)cc2)C(N)=O)cc1` (stereo partly shown) [Compound 17] stands “Cat B”.
As to `CCOC(=O)C1OC1C(=O)N[C@@H](Cc1ccc(C)cc1)C(=O)N[C@@H](Cc1ccc(O)cc1)C(N)=O` (stereo partly shown) [Compound 18], the Target entry is “Cat B”.
With `Cc1ccc(C[C@H](NC(=O)[C@H]2OC2C(=O)O)C(=O)N[C@@H](Cc2ccc(O)cc2)C(N)=O)cc1` (stereo partly shown) [Compound 19] the entry was “Cat B”; with `CC(=O)NCCNC(=O)C1O[C@@H]1C(=O)N[C@@H](CC(C)C)C(=O)N[C@@H](Cc1ccc(O)cc1)C(N)=O` (stereo partly shown) [Compound 20], “Cat B”.
As for `CC(C)C[C@H](NC(=O)[C@H]1OC1C(=O)NCc1ccccc1)C(=O)N[C@@H](Cc1ccc(O)cc1)C(N)=O` (stereo partly shown) [Compound 21], the Target entry is “Cat B”.
Consider `CC(C)C[C@H](NC(=O)C1OC1C(=O)NCCc1ccccn1)C(=O)N[C@@H](Cc1ccc(O)cc1)C(N)=O` (stereo partly shown) [Compound 22], for which the Target result is “Cat B”.
Under `CC(C)C[C@H](NC(=O)C1OC1C(=O)NCCN1CCOCC1)C(=O)N[C@@H](Cc1ccc(O)cc1)C(N)=O` (stereo partly shown) [Compound 23] stands “Cat B”.
Turning to `CC(C)C[C@H](NC(=O)C1OC1C(=O)NCCc1ccc(-c2ccccc2)cc1)C(=O)N[C@@H](Cc1ccc(O)cc1)C(N)=O` (stereo partly shown) [Compound 24], the Target entry is recorded as “Cat B”.
For the molecule `CC(C)C[C@H](NC(=O)[C@H]1OC1C(=O)NCCN1CCCC1)C(=O)N[C@@H](Cc1ccc(O)cc1)C(N)=O` (stereo partly shown) [Compound 26], the Target entry was “Cat B”.
`CC(C)C[C@H](NC(=O)[C@H]1O[C@@H]1C(=O)NCc1cccc2ccccc12)C(=O)N[C@@H](Cc1ccc(O)cc1)C(N)=O` [Compound 27]: the Target entry is “Cat B”.
With `CC(C)C[C@H](NC(=O)[C@H]1OC1C(=O)NCCN1CCCCC1)C(=O)N[C@@H](Cc1ccc(O)cc1)C(N)=O` (stereo partly shown) [Compound 28], the Target result is “Cat B”.
Under `CC(C)C[C@H](NC(=O)[C@H]1OC1C(=O)N[C@H](C)c1ccccc1)C(=O)N[C@@H](Cc1ccc(O)cc1)C(N)=O` (stereo partly shown) [Compound 29] stands “Cat B”; under `CC(C)C[C@H](NC(=O)C1OC1C(=O)NN1CCN(C)CC1)C(=O)N[C@@H](Cc1ccc(O)cc1)C(N)=O` (stereo partly shown) [Compound 30], “Cat B”.
Take `CC(C)C[C@H](NC(=O)C1OC1C(=O)NCCCCCCO)C(=O)N[C@@H](Cc1ccc(O)cc1)C(N)=O` (stereo partly shown) [Compound 32]: the Target result is given as “Cat B”.
For the molecule `CCNC(=O)C1OC1C(=O)N[C@@H](CC(C)C)C(=O)N[C@@H](Cc1ccc(O)cc1)C(N)=O` (stereo partly shown) [Compound 33], the Target entry is given as “Cat B”.
With `CC(C)C[C@H](NC(=O)C1OC1C(=O)NCC(N)=O)C(=O)N[C@@H](Cc1ccc(O)cc1)C(N)=O` (stereo partly shown) [Compound 34] the entry was “Cat B”.
As to `CC(C)C[C@H](NC(=O)[C@H]1OC1C(=O)NCC(=O)O)C(=O)N[C@@H](Cc1ccc(O)cc1)C(N)=O` (stereo partly shown) [Compound 35], the Target result was “Cat B”.
On to `CC(C)CNC(=O)C1OC1C(=O)N[C@@H](CC(C)C)C(=O)N[C@@H](Cc1ccc(O)cc1)C(N)=O` (stereo partly shown) [Compound 36], for which the Target result was “Cat B”.
On to `CC(C)C[C@H](NC(=O)C1OC1C(=O)N[C@@H](C)c1ccccc1)C(=O)N[C@@H](Cc1ccc(O)cc1)C(N)=O` (stereo partly shown) [Compound 37], for which the Target result was “Cat B”.
Under `CC(C)C[C@H](NC(=O)C1OC1C(=O)NCCO)C(=O)N[C@@H](Cc1ccc(O)cc1)C(N)=O` (stereo partly shown) [Compound 38] stands “Cat B”.
As to `CC(=O)NCCNC(=O)C1OC1C(=O)N[C@@H](CC(C)C)C(=O)N[C@@H](Cc1ccc(O)cc1)C(N)=O` (stereo partly shown) [Compound 41], the Target result is reported as “Cat B”.
With `CC(C)C[C@H](NC(=O)[C@@H]1O[C@H]1C(=O)NCc1ccccc1)C(=O)N[C@@H](Cc1ccc(O)cc1)C(N)=O` [Compound 42] the entry was “Cat B”; with `CC(C)C[C@H](NC(=O)C1O[C@H]1C(=O)NCCc1ccccn1)C(=O)N[C@@H](Cc1ccc(O)cc1)C(N)=O` (stereo partly shown) [Compound 43], “Cat B”; with `CC(C)C[C@H](NC(=O)C1OC1C(=O)NCCc1ccc(-c2ccccc2)cc1)C(=O)N[C@@H](Cc1ccc(O)cc1)C(N)=O` (stereo partly shown) [Compound 45], “Cat B”.
Under `CC(C)C[C@H](NC(=O)[C@@H]1O[C@H]1C(=O)NCc1cccc2ccccc12)C(=O)N[C@@H](Cc1ccc(O)cc1)C(N)=O` [Compound 48] stands “Cat B”; under `CC(C)C[C@H](NC(=O)C1O[C@H]1C(=O)NCCN1CCCCC1)C(=O)N[C@@H](Cc1ccc(O)cc1)C(N)=O` (stereo partly shown) [Compound 49], “Cat B”; under `CC(C)C[C@H](NC(=O)C1OC1C(=O)N[C@H](C)c1ccccc1)C(=O)N[C@@H](Cc1ccc(O)cc1)C(N)=O` (stereo partly shown) [Compound 50], “Cat B”.
As for `CC(C)C[C@H](NC(=O)C1O[C@H]1C(=O)NCCCCCCO)C(=O)N[C@@H](Cc1ccc(O)cc1)C(N)=O` (stereo partly shown) [Compound 53], the Target result is reported as “Cat B”.
With `CC(C)CNC(=O)C1OC1C(=O)N[C@@H](CC(C)C)C(=O)N[C@@H](Cc1ccc(O)cc1)C(N)=O` (stereo partly shown) [Compound 57], the Target result is on record as “Cat B”.
In the case of `CC(C)C[C@H](NC(=O)C1OC1C(=O)N[C@@H](C)c1ccccc1)C(=O)N[C@@H](Cc1ccc(O)cc1)C(N)=O` (stereo partly shown) [Compound 58], the Target result is reported as “Cat B”.
Under `CCOC(=O)C1OC1C(=O)N[C@@H](CC(C)C)C(=O)N[C@@H](Cc1ccc(O)cc1)C(N)=O` (stereo partly shown) [Compound 59] stands “Cat B”; under `CC(C)C[C@H](NC(=O)[C@H]1OC1C(=O)NCCc1ccc(O)cc1)C(=O)NCCN1CCCCC1` (stereo partly shown) [Compound 67], “Cat B”; under `CCOC(=O)C1OC1C(=O)N(CC(=O)N[C@@H](Cc1ccc(O)cc1)C(N)=O)CC(C)C` (stereo partly shown) [Compound 103], “Cat B”.
Under `CCC[C@H](NC(=O)[C@H]1O[C@@H]1C(=O)OCC)C(=O)NCc1cccc2ccccc12` [Compound 105] stands “General”; under `CCC[C@H](NC(=O)C1O[C@@H]1C(=O)NCCc1ccc(-c2ccccc2)cc1)C(=O)NCCc1ccccn1` (stereo partly shown) [Compound 106], “Cat B”.
With `CCC[C@H](NC(=O)[C@H]1O[C@@H]1C(=O)NCCc1ccc(O)cc1)C(=O)NCc1cccc2ccccc12` [Compound 111] the entry was “Cat Z”; with `CCC[C@H](NC(=O)[C@H]1O[C@@H]1C(=O)O)C(=O)NCc1cccc2ccccc12` [Compound 114], “General”.
For the molecule `CCC[C@H](NC(=O)[C@@H]1O[C@H]1C(=O)O)C(=O)NCc1cccc2ccccc12` [Compound 115], the Target entry is “Cat Z”.
In the case of `CCOC(=O)C1OC1C(=O)N[C@@H](Cc1ccc(C)cc1)C(=O)NCc1cccc2ccccc12` (stereo partly shown) [Compound 119], the Target entry is “Cat Z”.
For the molecule `CCC[C@H](NC(=O)C1O[C@@H]1C(=O)NCCc1ccc(O)cc1)C(=O)NCCc1ccccn1` (stereo partly shown) [Compound 120], the Target result is recorded as “Cat B”.
